Measurements: patent US20250041429A1, “COMPOUND HAVING BTK PROTEIN DEGRADATION ACTIVITY, AND MEDICAL USES THEREOF” (UBIX THERAPEUTICS, INC., priority 2021, published 2025)

Molecular target: T1, BTK protein (Homo sapiens, UniProt Q06187)
T1 construct: endogenous in cells; host or cells: TMD-8 cells
Test: Measurement of BTK protein degradation ability in TMD-8 cells (Western blotting)
Format: cell-based
Conditions: harvested after 24 hours; for BTK degradation (%) 1 nM: compound 1 nM; for BTK degradation (%) 10 nM: compound 10 nM; for BTK degradation (%) 100 nM: compound 100 nM
Protocol: TMD-8, RAMOS, or 293T BTK MUT (C481S) cells were treated with the synthesized compounds, and then the amount of BTK protein present in the cells was measured using Western blotting detection. The protocol for the experiment conducted using TMD-8 cells was as follows:
[Culture] TMD-8 cells were resuspended in RPMI1640 MEDIUM (Hyclone, SH30027.01), 10% FBS (Hyclone, SV30207.02), and 1% Penicillin-streptomycin (Welgene, LS 202-02) media, and 1 mL of this suspension was seeded in a 12-well plate at a cell concentration of 1×10^6/mL.
[Compound treatment] The 12-well plate was treated as follows: The 10 mM stock was serially diluted 1/10 with DMSO (3 μL+27 μL DMSO), and cells were treated with compounds at final concentrations of 0.1, 1, 10 μM or 0.0001, 0.001, 0.01, 0.1 μM, and harvested after 24 hours. In the negative control group, DMSO diluted 1/10 was added to the media. (3 μL DMSO+27 μL media)
[Harvest] Each well was pipetted with a 1 mL pipette, collected in a 1.5 mL microtube, and centrifuged (500 g, 5 min, 4° C.). After removing the supernatant, it was washed with PBS and centrifuged again (500 g, 5 min, 4° C.). The supernatant was removed and the pellet was collected.
[Cell lysis and Sample preparation] lysis buffer was prepared as follows: RIPA buffer (Biosesang, RC2038-050-00), 0.5 mM PMSF (SIGMA, P7626) and 1× Protease/Phosphatase Inhibitor (Cell signaling, 5872S) were added at 60-70 μL per well and left on ice for 30 minutes. (Vortexing at 0 and 30 minutes, respectively), followed by sonication (10 seconds pulse, 30 seconds rest, 5 cycles, 70% amplification) and centrifuge (15000 g, 15 min, 4° C.). Only the supernatant was collected and transferred to a new microtube. The samples were diluted by ½ with RIPA buffer in a 96-well plate. 200 μL of the mixture A:B=50:1 of the BCA Protein Assay Kit (iNtRON, 21071) was added each, stayed at 37° C. for 30 minutes, and cooled for 10 minutes. Afterwards, absorbance was measured at 562 nm using BioTek's SYNERGY H1 microplate reader. After making a sample by quantifying the protein using the measured value, it was boiled at 70° C. for 10 minutes. The sample buffer used at this time was a mixture of NuPAGE or Bolt 4× sample buffer (Invitrogen) and each 10× sample reducing agent according to the gel to be used. RIPA buffer was used for protein dilution.
[Western blotting detection method] The same amount of sample was loaded on NuPAGE or Bolt Bis-tris 4-12% gradient gel and run (200 V, 35 minutes). It was transferred to a […] NC membrane using Trans-blot Turbo (BIO-RAD) (1.3 A constant, 25 V limit, 15 minutes). For blocking, skim milk or Intercept Blocking Buffer (LI-COR, 927-60001): 0.1% TBST=1:1 was used at room temperature for 1 hour. Anti BTK Rabbit (1:1,000 in 5% skim milk/0.2% TBST, size: 77 kDa, Cell signaling Technology) was reacted at 4° C. for 16 hours or at room temperature for 2 hours. Anti GAPDH Rabbit (1:10,000 in 5% BSA/0.2% TBST, size: 36 kDa, GENETEX) and Anti β-actin mouse (1:10,000 in 5% BSA/0.2% TBST, RT, size: 43 kDa, GENETEX) were reacted at room temperature for 1 hour or 3 hours. The samples were washed 3 times with 0.5% TBST for 5 minutes each. Secondary antibodies, Anti-Rabbit IgG (1:5,000 in 5% Skim milk/TBST, CST), IRDye® 800CW Goat anti-Rabbit IgG Secondary Antibody (1:10,000 in 5% skim/TBST, RT 45 min), IRDye® 680RD Goat anti-Mouse IgG Secondary Antibody (1:10,000 in 5% skim/TBST, RT 45 min) were added depending on each sample and reacted for 45 minutes on a rocker at room temperature. The samples were washed 5 times with 0.5% TBST for 5 minutes each and detected with LI-COR's Odyssey. At this time, BTK was detected using SuperSignal West Pico PLUS Chemiluminescent Substrate or SuperSignal West femto Maximum Sensitivity Substrate, and house-keeping genes were detected as is.

T1 sequence (Q06187 whole entry): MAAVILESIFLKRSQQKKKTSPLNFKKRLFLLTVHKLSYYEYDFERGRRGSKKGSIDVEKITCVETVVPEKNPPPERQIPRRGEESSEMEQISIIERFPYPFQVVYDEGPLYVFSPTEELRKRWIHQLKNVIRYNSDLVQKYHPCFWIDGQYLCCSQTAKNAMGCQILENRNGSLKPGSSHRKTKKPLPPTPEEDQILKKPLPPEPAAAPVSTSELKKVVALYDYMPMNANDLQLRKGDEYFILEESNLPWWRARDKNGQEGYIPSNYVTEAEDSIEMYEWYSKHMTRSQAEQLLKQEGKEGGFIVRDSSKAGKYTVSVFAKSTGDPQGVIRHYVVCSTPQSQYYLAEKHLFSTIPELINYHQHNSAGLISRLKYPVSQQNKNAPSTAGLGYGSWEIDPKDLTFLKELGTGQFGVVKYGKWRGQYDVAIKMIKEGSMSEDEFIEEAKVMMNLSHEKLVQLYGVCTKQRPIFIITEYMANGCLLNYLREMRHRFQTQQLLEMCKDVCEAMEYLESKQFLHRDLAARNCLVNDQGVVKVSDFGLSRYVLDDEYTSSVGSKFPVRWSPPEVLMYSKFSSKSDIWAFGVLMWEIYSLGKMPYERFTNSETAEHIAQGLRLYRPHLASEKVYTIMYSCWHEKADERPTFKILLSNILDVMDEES

Compound	BTK degradation (%) 1 nM	BTK degradation (%) 10 nM	BTK degradation (%) 100 nM
Cc1cc(-c2ccnc(Nc3ccc(N4CCN(CC5CCN(c6cc7c(cc6F)C(=O)N(C6CCC(=O)NC6=O)C7=O)CC5)CC4)cc3)n2)ccc1CNC(=O)N1CC(OC(C)C)C1 (stereo not drawn) [Example 12, N-(4-(2-((4-(4-((1-(2-(2,6-dioxopiperidin-3-yl)-6-fluoro-1,3-dioxoisoindolin-5-yl)piperidin-4-yl)methyl)piperazin-1-yl)phenyl)amino)pyrimidin-4-yl)-2-methylbenzyl)-3-isopropoxyazetidine-1-carboxamide]	23.5%	84.5%	98.5%
Cc1cc(-c2ccnc(Nc3ccc(N4CCN(CC5CN(c6cc7c(cc6F)C(=O)N(C6CCC(=O)NC6=O)C7=O)C5)CC4)cc3)n2)ccc1CNC(=O)N1CC(OC(C)C)C1 (stereo not drawn) [Example 13, N-(4-(2-((4-(4-((1-(2-(2,6-dioxopiperidin-3-yl)-6-fluoro-1,3-dioxoisoindolin-5-yl)azetidin-3-yl)methyl)piperazin-1-yl)phenyl)amino)pyrimidin-4-yl)-2-methylbenzyl)-3-isopropoxyazetidine-1-carboxamide]	38%	91%	99%
Cc1cc(-c2ccnc(Nc3ccc(N4CCN(CC5(C)CN(c6ccc7c(c6)C(=O)N(C6CCC(=O)NC6=O)C7=O)C5)CC4)cc3)n2)ccc1CNC(=O)N1CC(OC(C)C)C1 (stereo not drawn) [Example 14, N-(4-(2-((4-(4-((1-(2-(2,6-dioxopiperidin-3-yl)-1,3-dioxoisoindolin-5-yl)-3-methylazetidin-3-yl)methyl)piperazin-1-yl)phenyl)amino)pyrimidin-4-yl)-2-methylbenzyl)-3-isopropoxyazetidine-1-carboxamide]	20%	85.5%	98%
Cc1cc(-c2ccnc(Nc3ccc(C4CCN(CC5CCN(c6ccc7c(c6)C(=O)N(C6CCC(=O)NC6=O)C7=O)CC5)CC4)cc3)n2)ccc1CNC(=O)N1CC(OC(C)C)C1 (stereo not drawn) [Example 15, N-(4-(2-((4-(1-((1-(2-(2,6-dioxopiperidin-3-yl)-1,3-dioxoisoindolin-5-yl)piperidin-4-yl)methyl)piperidin-4-yl)phenyl)amino)pyrimidin-4-yl)-2-methylbenzyl)-3-isopropoxyazetidine-1-carboxamide]	56.5%	95.5%	99%
Cc1cc(-c2ccnc(Nc3ccc(C4CCN(CC5CN(c6ccc7c(c6)C(=O)N(C6CCC(=O)NC6=O)C7=O)C5)CC4)cc3)n2)ccc1CNC(=O)N1CC(OC(C)C)C1 (stereo not drawn) [Example 16, N-(4-(2-((4-(1-((1-(2-(2,6-dioxopiperidin-3-yl)-1,3-dioxoisoindolin-5-yl)azetidin-3-yl)methyl)piperidin-4-yl)phenyl)amino)pyrimidin-4-yl)-2-methylbenzyl)-3-isopropoxyazetidine-1-carboxamide]	59%	93%	98.5%
Cc1cc(-c2ccnc(Nc3ccc(N4CCN(CC5CCN(c6ccc7c(c6)C(=O)N(C6CCC(=O)NC6=O)C7=O)CC5)CC4)nc3)n2)ccc1CNC(=O)N1CC(OC(C)C)C1 (stereo not drawn) [Example 17, N-(4-(2-((6-(4-((1-(2-(2,6-dioxopiperidin-3-yl)-1,3-dioxoisoindolin-5-yl)piperidin-4-yl)methyl)piperazin-1-yl)pyridin-3-yl)amino)pyrimidin-4-yl)-2-methylbenzyl)-3-isopropoxyazetidine-1-carboxamide]	37%	91%	98%
Cc1cc(-c2ccnc(Nc3ccc(N4CCN(CC5CN(c6ccc7c(c6)C(=O)N(C6CCC(=O)NC6=O)C7=O)C5)CC4)nc3)n2)ccc1CNC(=O)N1CC(OC(C)C)C1 (stereo not drawn) [Example 18, N-(4-(2-((6-(4-((1-(2-(2,6-dioxopiperidin-3-yl)-1,3-dioxoisoindolin-5-yl)azetidin-3-yl)methyl)piperazin-1-yl)pyridin-3-yl)amino)pyrimidin-4-yl)-2-methylbenzyl)-3-isopropoxyazetidine-1-carboxamide]	46%	92%	98.5%
Cc1cc(-c2ccnc(Nc3ccc(C4CCN(CC5CCN(c6ccc7c(c6)C(=O)N(C6CCC(=O)NC6=O)C7=O)CC5)CC4)nc3)n2)ccc1CNC(=O)N1CC(OC(C)C)C1 (stereo not drawn) [Example 19, N-(4-(2-((6-(1-((1-(2-(2,6-dioxopiperidin-3-yl)-1,3-dioxoisoindolin-5-yl)piperidin-4-yl)methyl)piperidin-4-yl)pyridin-3-yl)amino)pyrimidin-4-yl)-2-methylbenzyl)-3-isopropoxyazetidine-1-carboxamide]	48%	93%	99%
Cc1cc(-c2ccnc(Nc3ccc(C4CCN(CC5CN(c6ccc7c(c6)C(=O)N(C6CCC(=O)NC6=O)C7=O)C5)CC4)nc3)n2)ccc1CNC(=O)N1CC(OC(C)C)C1 (stereo not drawn) [Example 20, N-(4-(2-((6-(1-((1-(2-(2,6-dioxopiperidin-3-yl)-1,3-dioxoisoindolin-5-yl)azetidin-3-yl)methyl)piperidin-4-yl)pyridin-3-yl)amino)pyrimidin-4-yl)-2-methylbenzyl)-3-isopropoxyazetidine-1-carboxamide]	49%	92%	98.5%
Cc1cc(-c2ccnc(Nc3cnn(C4CCN(CC5CCN(c6ccc7c(c6)C(=O)N(C6CCC(=O)NC6=O)C7=O)CC5)CC4)c3)n2)ccc1CNC(=O)N1CC(OC(C)C)C1 (stereo not drawn) [Example 21, N-(4-(2-((1-(1-((1-(2-(2,6-dioxopiperidin-3-yl)-1,3-dioxoisoindolin-5-yl)piperidin-4-yl)methyl)piperidin-4-yl)-1H-pyrazol-4-yl)amino)pyrimidin-4-yl)-2-methylbenzyl)-3-isopropoxyazetidine-1-carboxamide]	70%	96.5%	99%
Cc1cc(-c2ccnc(Nc3cnn(C4CCN(CC5CN(c6ccc7c(c6)C(=O)N(C6CCC(=O)NC6=O)C7=O)C5)CC4)c3)n2)ccc1CNC(=O)N1CC(OC(C)C)C1 (stereo not drawn) [Example 22, N-(4-(2-((1-(1-((1-(2-(2,6-dioxopiperidin-3-yl)-1,3-dioxoisoindolin-5-yl)azetidin-3-yl)methyl)piperidin-4-yl)-1H-pyrazol-4-yl)amino)pyrimidin-4-yl)-2-methylbenzyl)-3-isopropoxyazetidine-1-carboxamide]	75%	97%	99%
